According to patent US6544976B1, “Neurotrophic 2-azetidinecarboxylic acid derivatives, and related compositions and methods” (Ortho-McNeil Pharmaceutical, Inc., priority 1999, dated 2003):

Columns and labels:
DRG = test: Dorsal root ganglion (DRG) culture, neurite outgrowth; assay type: cell-based, CD rats; parameters: key: + = Positive results for each experiment; − = Negative results for each experiment; NA = Not active; conditions: test compound 50-250 nM; neurite outgrowth examined on days 1-5; positive (+) if compound induced neurites of ≧1 diameter of the DRG
Procedure: DRG are dissected from newborn or 1-day-old CD rats and placed into PBS on ice. After rinsing twice with sterile plating medium, DRG are transferred to empty wells of a 6-well plate coated with polyomithine/laminin (Becton Dickinson Labware) using #7 curved forceps. Three ml/well of plating medium are then added very gently, so as not to disturb the DRG. Plating medium is Leibovitz's L-15 medium (Gibco), plus 0.6% glucose, 33 mM KCl, 10% FCS, 10 mM Hepes and penicillin/streptomycin/glutamine. After overnight incubation at about 37° C. in 5% CO2, this medium is replaced with 3 mL/well of assay medium [Leibovitz's L-15 medium plus 0.6% glucose, 1% FCS, 1% N-2 supplement (Gibco), […], 10 mM Hepes, and penicillin/streptomycin/glutamine] containing either vehicle (DMSO, 1/200,000), positive control (2-4 ng/mL NGF) or test compound (50-250 nM). All media are prepared fresh daily. DRG are microscopically examined for neurite outgrowth on days 1-5.

facial nerve = test: Rat facial nerve compression model; assay type: in vivo, Long-Evans rats; conditions: p.o. about 20 mg/kg twice a day for 15 days after surgery; compared to vehicle and internal control; FIG. 1
Procedure: In this model, compressing the facial nerve causes paralysis of the whisker muscle on that side of the face. The untreated facial nerve on the other side functions as an internal control. […] The whisker movement recovery rate on the paralyzed side compared to the vehicle and internal control is shown in this FIGURE.
Long-Evans rats are anesthetized under ketamine (60 mg/kg)/xylazine (6 mg/kg). The facial nerve is exposed and mechanically compressed with forceps near the stylomastoid foramen unilaterally with the opposite, non-lesioned side serving as an internal control. […] Rats received test compound p.o. at about 20 mg/kg twice a day for 15 days after the surgery. Control rats received vehicle only. Three to eight rats are tested in each group. Restoration of whisker movement after the treatment with compounds of the present invention is recorded at different post-operative time points daily, up to two weeks, and is shown in FIG. 1.

[1] = tested on: Human M17 Neuroblastoma Cells; test: Neurite outgrowth assay (MAP-2 immunofluorescence) in M17 neuroblastoma cells; assay type: cell-based; conditions: MAP-2 fluorescence, active if greater than mean DMSO-treated control on same plate, NA = Not active
Procedure: M17 human neuroblastoma cells are cultured in 1:1 ratio of EMEM and Ham's F12 with 1×NEAA and 10% FBS. The culture media contains 1×PSN antibiotic and is exchanged every other day, and the cells are passed in log phase near confluence.
(§1) Cultures are incubated with normal horse serum (1:50; Vector Labs) for about 20 min, rinsed and then incubated with primary antibody, microtubule associated-protein 2 (anti-mouse MAP-2; 1:1000; Chemicon) for about 2 h at about RT. Following primary antibody, cultures are rinsed and incubated with fluorescein anti-mouse IgG (rat absorbed; 1:50; Vector Labs) for about 1 h. After fluorescein incubation, the cultures are rinsed and read in PBS on a fluorescent plate reader (excitation: 485 nm; emission: 530 nm). A compound is regarded as active if the neurite outgrowth response is greater than the mean DMSO-treated control response on the same plate. The response to test compound is reported as percent of DMSO-treated control (absent the percentage sign). The signal-to-noise separation is consistent: the fluorescence from DMSO control wells is at least two-fold greater than blank wells.

[2] = tested on: Primary Rat Hippocampal Cells; test: Neurite outgrowth assay (MAP-2 immunofluorescence) in primary rat hippocampal cells; assay type: cell-based; conditions: MAP-2 fluorescence, active if greater than mean DMSO-treated control on same plate, NA = Not active
Procedure: Hippocampal cells are dissected from the brains of embryonic day 18 rat pups and dissociated with trypsin (1 mg/mL) and trituration. Cells are seeded at 30,000 cells/well in 96-well plates filled with 100 μL MEM and 10%FBS. At 7 days in culture, cells are fixed with 4% paraformaldehyde and immunofluorescence is performed.
as §1

sensory ganglia = conditions: cultures of sensory ganglia; cited from earlier work
PC12 cells = conditions: cultures of PC12 cells; cited from earlier work

Row | SMILES | M17 Cell Response [1] | Rat Hippocampal Cell Response [2] | also measured
1 | CCC(C)(C)C(=O)C(=O)N1CC[C@H]1C(=O)OCCCc1cccnc1 [Compound 1, (2S)-[3-(3-Pyridyl)1-propyl]-1-(1,2-dioxo-3,3-dimethylpentyl)azetidine-2-carboxylate] | 140% of DMSO-treated control | – | DRG (DRG): +; Restoration of whisker movement on the paralyzed side (facial nerve): restored more rapidly
2 | CCC(C)(C)C(=O)C(=O)N1CC[C@H]1C(=O)OC(C)(C)CCc1cccnc1 [Compound 2, (2S)-[3-(3-Pyridyl)-1,1-dimethyl-1-propyl]-1-(1,2-dioxo-3,3-dimethylpentyl)azetidine-2-dicarboxylate] | 134% of DMSO-treated control | – | DRG (DRG): +
3 | CCC(C)(C)C(=O)C(=O)N1CC[C@H]1C(=O)OCCC(c1ccccc1)c1ccccc1 [Compound 3, (2S)-(3,3-Diphenyl-1-propyl)1-(1,2-dioxo-3,3-dimethylpentyl) azetidine-2-carboxylate] | 110% of DMSO-treated control | 119% of DMSO-treated control | –
4 | CCC(C)(C)C(=O)C(=O)N1CC[C@H]1C(=O)OCCCCc1ccc(OC)cc1 [Compound 4, (2S)-[4-(4-Methoxyphenyl)-1-butyl]-1-(1,2-dioxo-3,3-dimethylpentyl)azetidine-2-carboxylate] | 107% of DMSO-treated control | – | –
5 | CC(C)(C)NC(=O)N1CC[C@H]1C(=O)OCCCc1cccnc1 [Compound 7] | – | 123% of DMSO-treated control | –
6 | O=C(C(=O)N1CC[C@H]1C(=O)OCCCc1cccnc1)c1ccccc1 [Compound 9] | – | 112% of DMSO-treated control | –
7 | CC(C)(C)C(=O)C(=O)N1CC[C@H]1C(=O)OCCCc1cccnc1 [Compound 10, (2S)-[3-(3-Pyridyl)-1-propyl]-1-(1,2-dioxo-3,3-dimethylbutyl)azetidine-2-carboxylate] | – | 123% of DMSO-treated control | –
8 | O=C(C(=O)N1CC[C@H]1C(=O)OCCCc1cccnc1)c1cccs1 [Compound 11, (2S)-[3-(3-Pyridyl)-1-propyl]-1-[1,2-dioxo-2-(thien-2-yl)ethyl]azetidine-2-carboxylate] | – | 114% of DMSO-treated control | –
9 | Cc1cc(C(=O)N2CC[C@H]2C(=O)OCCCc2cccnc2)nn1C [Compound 13, (2S)-[3-(3-Pyridyl)-1-propyl]-1-[(1,5-dimethylpyrazol-3-yl)carbonyl]azetidine-2-carboxylate] | – | 123% of DMSO-treated control | –
10 | CCC(C)(C)C(=O)C(=O)N1CC[C@H]1c1nnnn1CCCc1cccnc1 [Compound 14, (2S)-1-(1,2-Dioxo-3,3-dimethylpentyl)2-(1-[3-(3-pyridyl)-1-propyl]-1H-tetrazol-5-yl)azetidine] | – | 118% of DMSO-treated control | –
11 | COc1ccc(CCCCOC(=O)[C@@H]2C[C@@H](C(=O)OCCCCc3ccc(OC)cc3)N2C(=O)C(=O)c2ccccc2)cc1 [Compound 15, (2S,4S)-Bis-[4-(4-methoxyphenyl)-1-butyl)-1-(1,2-dioxo-2-phenylethyl)azetidine-2,4-dicarboxylate] | – | 126% of DMSO-treated control | –
12 | CCC(C)(C)C(=O)C(=O)N1[C@@H](C(=O)OCCCCc2ccc(OC)cc2)C[C@H]1C(=O)OCCCCc1ccc(OC)cc1 [Compound 16, (2S,4R)-Bis-[4-(4-methoxyphenyl)-1-butyl]-1-(1,2-dioxo-3,3-dimethylpentyl)azetidine-2,4-dicarboxylate] | 114% of DMSO-treated control | – | –
13 | CCC(C)(C)C(=O)C(=O)N1[C@@H](C(=O)OCCC(c2ccccc2)c2ccccc2)C[C@H]1C(=O)OCCC(c1ccccc1)c1ccccc1 [Compound 17, (2S,4R)-Bis-(3,3-diphenyl-1-propyl)-1-(1,2-dioxo-3,3-dimethylpentyl)azetidine-2,4-dicarboxylate] | 106% of DMSO-treated control | – | –
14 | CCC(C)(C)C(=O)C(=O)N1C(C(=O)OCCCc2cccnc2)C[C@H]1C(=O)OCCCc1cccnc1 (stereo partly drawn) [Compound 18, (2S,4R)-Bis-[3-(3-pyridyl)-1-propyl]-1-(1,2-dioxo-3,3-dimethylpentyl)azetidine-2,4-dicarboxylate] | 106% of DMSO-treated control | 137% of DMSO-treated control | –
15 | CCC(C)(C)C(=O)C(=O)N1[C@@H](C(=O)OCCCCc2ccc(OC)cc2)C[C@@H]1C(=O)OCCCCc1ccc(OC)cc1 [Compound 19, (2R,4R)-Bis-[4-(4-methoxyphenyl)-1-butyl]-1-(1,2-dioxo-3,3-dimethylpentyl)azetidine-2,4-dicarboxylate] | 111% of DMSO-treated control | – | –
16 | CCC(C)(C)C(=O)C(=O)N1C(C(=O)OCCCc2cccnc2)C[C@@H]1C(=O)OCCCc1cccnc1 (stereo partly drawn) [Compound 20, (2R,4R)-Bis-[3-(3-pyridyl)-1-propyl]-1-(1,2-dioxo-3,3-dimethylpentyl)azetidine-2,4-dicarboxylate] | 103% of DMSO-treated control | – | –
17 | CCC(C)(C)C(=O)C(=O)N1[C@H](C(=O)OCCCCc2ccc(OC)cc2)C[C@H]1C(=O)OCCCCc1ccc(OC)cc1 [Compound 21, (2S,4S)-Bis-[4-(4-methoxyphenyl)-1-butyl]-1-(1,2-dioxo-3,3-dimethylpentyl)azetidine-2,4-dicarboxylate] | 103% of DMSO-treated control | – | –
18 | C=CC[C@@H]1/C=C(\C)C[C@H](C)C[C@H](OC)[C@H]2O[C@@](O)(C(=O)C(=O)N3CCCC[C@H]3C(=O)O[C@H](/C(C)=C/[C@@H]3CC[C@@H](O)[C@H](OC)C3)[C@H](C)[C@@H](O)CC1=O)[C@H](C)C[C@@H]2OC [FK506] | – | – | neurotrophic activity (sensory ganglia): shows neurotrophic activity; neurotrophic activity (PC12 cells): shows neurotrophic activity
